Source: ChEMBL document CHEMBL5029196, “Novel Isoindolone Compounds as HPK1 Inhibitors for Treating Cancer” (ACS Med Chem Lett, 2022)

Biological target: Mitogen-activated protein kinase kinase kinase kinase 1 (Homo sapiens, UniProt Q92918)
Assay: Inhibition of human full length recombinant HPK1 using 5FAM-AKRRRLSSLRACOOH as substrate preincubated for 20 mins and measured for 60 mins by microfluidic mobility shift assay

Sequence of Mitogen-activated protein kinase kinase kinase kinase 1 (Q92918 whole entry): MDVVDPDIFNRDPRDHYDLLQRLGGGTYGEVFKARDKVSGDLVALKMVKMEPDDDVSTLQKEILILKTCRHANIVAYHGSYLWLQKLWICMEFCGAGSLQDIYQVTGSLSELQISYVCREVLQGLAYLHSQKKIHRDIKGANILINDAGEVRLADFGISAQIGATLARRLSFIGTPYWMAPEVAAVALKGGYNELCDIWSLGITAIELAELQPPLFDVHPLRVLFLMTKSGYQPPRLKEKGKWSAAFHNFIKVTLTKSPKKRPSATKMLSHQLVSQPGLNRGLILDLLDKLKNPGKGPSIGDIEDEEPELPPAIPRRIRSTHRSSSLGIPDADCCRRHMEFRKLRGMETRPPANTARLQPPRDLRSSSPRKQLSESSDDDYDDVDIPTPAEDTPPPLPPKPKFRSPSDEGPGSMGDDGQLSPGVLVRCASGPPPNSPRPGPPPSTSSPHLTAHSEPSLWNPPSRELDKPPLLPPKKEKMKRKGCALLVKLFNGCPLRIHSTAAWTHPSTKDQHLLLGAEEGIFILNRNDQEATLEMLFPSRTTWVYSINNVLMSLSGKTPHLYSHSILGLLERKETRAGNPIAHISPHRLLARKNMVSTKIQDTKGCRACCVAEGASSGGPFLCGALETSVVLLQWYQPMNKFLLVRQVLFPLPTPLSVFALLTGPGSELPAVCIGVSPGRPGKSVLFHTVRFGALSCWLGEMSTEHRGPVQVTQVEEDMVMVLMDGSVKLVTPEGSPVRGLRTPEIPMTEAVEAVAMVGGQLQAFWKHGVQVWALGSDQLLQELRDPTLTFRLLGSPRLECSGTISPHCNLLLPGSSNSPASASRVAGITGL

Row | Structure (SMILES) | Ki [nM]
1 | CNCc1cc(OC)cc2c1CN(c1cccc(-c3nncn3[C@@H](C)C3CC3)n1)C2=O | 0.2
2 | COc1cc2c(c(S(N)(=O)=O)c1)CN(c1cccc(-c3nncn3C(C)C)n1)C2=O | 0.4
3 | CC[C@H](C)n1cnnc1-c1cccc(N2Cc3c(CNC)cc(N4CCCC4)cc3C2=O)n1 | 0.3
4 | COc1cc(CN)c2c(c1)C(=O)N(c1cccc(-c3nncn3[C@@H](C)CC(F)(F)F)n1)C2 | 0.3
5 | CC[C@@H](CC(F)(F)F)n1cnnc1-c1cccc(N2Cc3c(CNC)cc(OC)cc3C2=O)n1 | 0.4
6 | CC[C@H](C)n1cnnc1-c1cccc(N2Cc3c(CNC)cc(N(C)C)cc3C2=O)n1 | 0.4
